Paper PMC4472624, “Pharmacokinetics of daptomycin in patients undergoing low-flow continuous venovenous hemodiafiltration” (Critical Care, 2015)
Read-outs that look alike come from different tables or passages of the source.

Columns and labels:
[1] = cited from earlier work
Excerpt: In Japan, CVVHDF is preferentially performed with lower flow rates. Investigating effects of flow rate on DAP removal during co ...

[2] = Pharmacokinetics of daptomycin in patients undergoing low-flow CVVHDF; format: in vivo, human; settings: 6 mg/kg i.v. every 48 hours, HPLC; for AUC / half-life: 6 mg/kg; for AUC: read-out: area under the concentration-time curve (AUC); for half-life: read-out: elimination half-life (t1/2) (converted)
Protocol: DAP (6 mg/kg) was administered intravenously every 48 hours to CVVHDF patients in the ICU. Blood and filtrate samples were collected at 0, 1, 1.5, 2, 5, 12, 24, and 48 hours after infusion. All collected samples were analyzed using HPLC according to the method of Tobin et al.. Maximum concentration (Cmax), elimination half-life (t1/2), area AUC, Cmin, volume of distribution (Vd), clearance (CL), fraction unbound, and sieving coefficient (Sc) were evaluated. Patient characteristics and CVVHDF parameters including blood, dialysate, and filtration flow rates were recorded.

[3] = low-flow CVVHDF, blood and filtrate samples, mean of three patients
[4] = human, blood, iv, low-flow CVVHDF, single patient, first listed
[5] = human, blood, iv, low-flow CVVHDF, single patient, second listed
[6] = human, blood, iv, low-flow CVVHDF, single patient, third listed

CCCCCCCCCC(=O)N[C@@H](Cc1c[nH]c2ccccc12)C(=O)N[C@H](CC(N)=O)C(=O)N[C@@H](CC(=O)O)C(=O)N[C@@H]1C(=O)NCC(=O)N[C@@H](CCCN)C(=O)N[C@@H](CC(=O)O)C(=O)N[C@H](C)C(=O)N[C@@H](CC(=O)O)C(=O)NCC(=O)N[C@H](CO)C(=O)N[C@@H]([C@H](C)CC(=O)O)C(=O)N[C@@H](CC(=O)c2ccccc2N)C(=O)O[C@@H]1C [DAP, daptomycin]
AUC/MIC required to obtain clinical success [1]: 1,061 mg hour/l
trough serum concentration (Cmin) ([2]; low-flow CVVHDF, single patient, first listed): 2300 ng/mL
trough serum concentration (Cmin) ([2]; low-flow CVVHDF, single patient, second listed): 24700 ng/mL
trough serum concentration (Cmin) ([2]; low-flow CVVHDF, single patient, third listed): 14000 ng/mL
CL of dialyzer [2, 3]: 1.20 ± 0.39 mL/min
sieving coefficient (Sc) [2, 3]: 0.08 ± 0.03
CL of dialyzer ([2]; low-flow CVVHDF, blood and filtrate samples, single patient, first listed): 1.70 mL/min
CL of dialyzer ([2]; low-flow CVVHDF, blood and filtrate samples, single patient, second listed): 0.88 mL/min
CL of dialyzer ([2]; low-flow CVVHDF, blood and filtrate samples, single patient, third listed): 0.96 mL/min
AUC [2, 4]: 471 µg·h/mL
half-life [2, 4]: 18.6 h
AUC [2, 5]: 967 µg·h/mL
half-life [2, 5]: 11.5 h
AUC [2, 6]: 1260 µg·h/mL
half-life [2, 6]: 70.5 h
fraction unbound ([2]; human, blood, iv, ICU patients on low-flow CVVHDF, mean of three patients): 0.058
clearance ([2]; human, blood, iv, ICU patients on low-flow CVVHDF, mean of three patients, read-out: clearance (CL)): 9.47 ± 4.56 mL/min
Vd ([2]; human, blood, iv, ICU patients on low-flow CVVHDF, mean of three patients, read-out: volume of distribution (Vd)): 26 ± 20.9 L
Cmax ([2]; human, iv, ICU patients on low-flow CVVHDF, blood samples 0-48 hours, mean of three patients, read-out: Maximum concentration (Cmax)): 50100 ± 12700 ng/mL
